Experimental findings from patent US20120294808A1, “Fluorescent Analogs of Neurotransmitters, Compositions Containing the Same and Methods of Using the Same” (UNIVERSITY OF MIAMI, priority 2009, published 2012) are described below.

Structures are written as SMILES. Values joined by “and” are separate entries in the source; they are usually repeats but may differ in a detail not shown here. Equal entries are not always repeated. “Also recorded” adds a separate entry of the source. Where only a bound is given, the exact number is not on record here.

For data set [1], the system named is Neurons and astroglia isolated from E14 chick brainstems. Put plainly: Live confocal imaging of cultured cells exposed to probe (405 nm excitation). In kind it is cell-based. The procedure: In other words, whether the probe localized to the cell membrane, implying binding to transporters or receptors, or whether the probe was internalized, implying active transport into the cytosol. Neurons and astroglia isolated from E14 chick brainstems were grown on poly-L-lysine and laminin treated coverslips affixed to 35 mm culture dishes enabling live imaging of the cells in culture media. […] Cells were exposed to the probe solution for one minute, the media was then changed and additional images were captured. […] During the course of the imaging experiments, some photobleaching was observed.

The subject of data set [2] is Mixed cell cultures of neurons and astroglia isolated from the brain stems of E14 chick embryos. Put plainly: Microwell plate reader cellular uptake assay, with and without clomipramine (SRI) pretreatment. In kind it is cell-based. Conditions: for effect of Clomipramine pretreatment on uptake: pre-treatment with Clomipramine, a serotonin reuptake inhibitor; for emission response (cellular uptake): λex=355 nm, λem=444 nm, versus controls A and B. The source says: Mixed cell cultures of neurons and astroglia isolated from the brain stems of E14 chick embryos were exposed to solutions of 1-4. Serotonergic cells are clustered in the raphe nucleus (RN) located along the midline of the brain stem; they project into other regions of the brain including the hypothalamus, the olfactory bulb, cortex and cerebellum. […] The inherent fluorescence of the carbostyril core enabled direct detection of their cellular uptake utilizing a microwell plate reader (λex=355 nm, λem=444 nm).
It was believed that several modes of interaction are possible between the fluorescent probes and the cultured cells including specific interactions such as active transport via neurotransmitter transporters, or binding to neurotransmitter receptors, as well as non-specific interactions such as insertion into the cell membrane.

Data set [3] is described as follows: Optical properties (absorption and emission spectra) of carbostyril probes 1-4. The format is physicochemical. The settings on record: for small additional emission peak: acidic solutions, protonated form. An excerpt:
The optical properties of 1-4 were investigated in order to determine their suitability as fluorescent probes. Absorption spectra were obtained in neutral, acidic and basic solutions. […] Addition of acetic acid effected a hypsochromic shift (λmax=335 nm); the addition of triethylamine results in pronounced bathchromic (λmax=370 nm) and hyperchromic shifts. The linear combination of the absorption spectra with excess acid and excess base nearly perfectly overlaps with the spectrum obtained at pH 7.2 (FIG. 1). Therefore, it was determined that at near neutral pH (between approximately 6.5-7.5pH), both protonated and unprotonated species exist at roughly equal concentrations.
Thus, it was determined that in neutral and basic solutions, 1-4 emit from a deprotonated excited state species. Emission in acidic solutions is dominated by the deprotonated species as well. In the case of 3 and 4 a small peak at 380 nm was observed, which is likely due to photoemission from the protonated form of these molecules. While 5HT itself is fluorescent, single photon excitation of 5HT requires specialized optics and a UV excitation source (λmax,abs=277 nm). Furthermore, the autofluorescence of biological samples is also quite high in the UV region. The longer wavelength absorption of 1-4 allows selective photoexcitation of these fluorophores in the presence of aromatic amino acid residues and nucleobases.

A short description of data set [4]: Solubility of probes 1-4 in methanol and PBS. In kind it is physicochemical. Conditions: phosphate-buffered saline (PBS), aqueous buffer; read-out: concentration at which soluble in PBS. The source says: The synthesis of analogs 2-4 followed a similar route: reaction of 5 with chloroethylamine followed by deprotection of the 6-hydroxy group produced 2; 3 and 4 resulted from reaction of 5 with bromoethanol and bromopropylbenzene respectively. In all cases the N-linked isomer was isolated.

Data set [5] has as its system dissociated e19 chick brain cells. The experiment in a line: Example 4 uptake in brain cells (microwell plate assay and/or live cell confocal imaging, 405 nm laser). In kind it is cell-based. Conditions: 10 μM to 100 μM; absence of monoamine reuptake inhibitors. The procedure: Stock solutions of the compounds shown below (UM001-UM005, 8, 9 & 12A from Example 2) were used to produce compositions with final concentrations ranging from 10 μM to 100 μM. The compositions were then contacted with dissociated e19 chick brain cells, irradiated with a 405 nm laser, and imaged using confocal microscopy.

The test system is the same in data set [6]. The experiment in a line: 96-microwell plate uptake screen, with and without indatraline pretreatment. In kind it is cell-based. Conditions: pretreated with indatraline, a monoamine reuptake inhibitor.
Experimental: The native fluorescence of the emitters enables direct detection of their uptake in dissociated e19 chick brain cells in a convenient 96-microwell plate format. This method enables screening for activity against multiple cell types and transporters including MATs and OCTs without the use of radioactive compounds. Solutions of 11A-18D were added to cell culture media to produce an emitter concentration of 100 μM. The incubation time used was 10 min. The fluorphore solution was removed, fresh media added and the plate immediately analyzed by microwell plate reader. Given the broad range of absorption and emission wavelengths, excitation varied from 355 nm to 500 nm with emission collected at +100 nm to +150 nm.
From this initial assay, it was possible to determine whether a compound associates with the cultured cells; however, it was not clear whether a particular compound was actively transported into cells or simply interacts with the cell membrane. The monoamine transporter (MAT) reuptake inhibitor, indatraline, was utilized to provide some insight into what mechanisms of cellular uptake are at play. Dissociated brain cells were pretreated with indatraline followed by each of the twelve emitters identified from the results shown in FIG. 5.
Data set [7] in a line: Optical spectroscopy (UV-vis and fluorescence) of the stilbazolium emitter library. The format is physicochemical. The procedure: UV-vis spectroscopy was conducted to evaluate the absorption and emission spectra for each of the thirty-two emitters.
The next data set deals with T1, hNET (Homo sapiens, UniProt P23975).
T1 construct: expressed in transfected cells
T1 sequence (P23975 whole entry): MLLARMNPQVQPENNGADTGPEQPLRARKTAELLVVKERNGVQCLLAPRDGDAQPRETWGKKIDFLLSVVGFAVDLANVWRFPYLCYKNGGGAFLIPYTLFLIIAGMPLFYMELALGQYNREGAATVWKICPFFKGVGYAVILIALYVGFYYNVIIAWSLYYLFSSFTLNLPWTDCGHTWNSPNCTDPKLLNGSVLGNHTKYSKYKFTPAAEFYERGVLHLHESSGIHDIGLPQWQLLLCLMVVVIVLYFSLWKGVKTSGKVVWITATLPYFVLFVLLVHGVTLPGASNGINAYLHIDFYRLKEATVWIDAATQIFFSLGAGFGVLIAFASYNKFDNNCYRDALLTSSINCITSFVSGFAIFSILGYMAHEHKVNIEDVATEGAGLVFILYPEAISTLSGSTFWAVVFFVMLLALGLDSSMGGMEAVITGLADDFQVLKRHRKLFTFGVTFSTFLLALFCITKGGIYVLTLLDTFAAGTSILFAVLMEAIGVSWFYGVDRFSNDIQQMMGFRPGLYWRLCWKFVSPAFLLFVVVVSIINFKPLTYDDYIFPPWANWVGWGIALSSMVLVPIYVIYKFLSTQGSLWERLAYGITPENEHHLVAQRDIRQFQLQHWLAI
Put plainly: Time-lapse confocal fluorescence microscopy of transporter-expressing HEK-293 cells (hNET). In kind it is cell-based. Conditions: HEK-293 hNET, 10 μM to 100 μM, images at 10 sec intervals. An excerpt:
(§1) HEK-293 cells stably expressing hDAT, hNET and hSERT were provided by Prof. R. Blakely (See, e.g., J. W. Schwartz, R. D. Blakely and L. J. DeFelice, J. Biol. Chem., 2003, 278, 9768.) and cultured on 35 mm dishes with a coverslip imaging window for confocal microscopy. […] Laser intensity and gain were not altered for subsequent images captured at 10 sec intervals. Representative images are shown in FIG. 7 together with intensity profiles captured from cell bodies.

The next data set deals with T2, hDAT (Homo sapiens, UniProt Q01959).
T2 construct: expressed in transfected cells
T2 sequence (Q01959 whole entry): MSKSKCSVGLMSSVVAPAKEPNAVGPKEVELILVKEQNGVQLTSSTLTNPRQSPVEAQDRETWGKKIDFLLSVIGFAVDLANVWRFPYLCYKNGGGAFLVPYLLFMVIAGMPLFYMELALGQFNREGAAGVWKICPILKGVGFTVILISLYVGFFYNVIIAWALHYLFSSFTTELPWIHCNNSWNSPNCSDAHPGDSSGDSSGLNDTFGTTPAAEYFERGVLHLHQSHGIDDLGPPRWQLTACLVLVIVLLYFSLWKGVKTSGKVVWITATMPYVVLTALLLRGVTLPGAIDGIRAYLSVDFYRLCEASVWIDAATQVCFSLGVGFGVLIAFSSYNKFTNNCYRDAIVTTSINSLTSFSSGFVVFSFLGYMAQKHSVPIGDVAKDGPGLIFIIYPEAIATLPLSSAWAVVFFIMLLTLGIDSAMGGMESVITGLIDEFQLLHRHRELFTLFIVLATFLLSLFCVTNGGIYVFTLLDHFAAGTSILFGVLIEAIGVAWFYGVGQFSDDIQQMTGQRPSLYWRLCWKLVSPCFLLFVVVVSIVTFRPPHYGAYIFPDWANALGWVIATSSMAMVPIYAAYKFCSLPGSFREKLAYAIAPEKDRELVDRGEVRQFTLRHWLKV
The experiment in a line: Time-lapse confocal fluorescence microscopy of transporter-expressing HEK-293 cells (hDAT). The format is cell-based. Conditions: HEK-293 hDAT, 10 μM to 100 μM, images at 10 sec intervals.
Text: as §1

For another data set, the target named is T3, hSERT (Homo sapiens, UniProt P31645).
T3 construct: expressed in transfected cells
T3 sequence (P31645 whole entry): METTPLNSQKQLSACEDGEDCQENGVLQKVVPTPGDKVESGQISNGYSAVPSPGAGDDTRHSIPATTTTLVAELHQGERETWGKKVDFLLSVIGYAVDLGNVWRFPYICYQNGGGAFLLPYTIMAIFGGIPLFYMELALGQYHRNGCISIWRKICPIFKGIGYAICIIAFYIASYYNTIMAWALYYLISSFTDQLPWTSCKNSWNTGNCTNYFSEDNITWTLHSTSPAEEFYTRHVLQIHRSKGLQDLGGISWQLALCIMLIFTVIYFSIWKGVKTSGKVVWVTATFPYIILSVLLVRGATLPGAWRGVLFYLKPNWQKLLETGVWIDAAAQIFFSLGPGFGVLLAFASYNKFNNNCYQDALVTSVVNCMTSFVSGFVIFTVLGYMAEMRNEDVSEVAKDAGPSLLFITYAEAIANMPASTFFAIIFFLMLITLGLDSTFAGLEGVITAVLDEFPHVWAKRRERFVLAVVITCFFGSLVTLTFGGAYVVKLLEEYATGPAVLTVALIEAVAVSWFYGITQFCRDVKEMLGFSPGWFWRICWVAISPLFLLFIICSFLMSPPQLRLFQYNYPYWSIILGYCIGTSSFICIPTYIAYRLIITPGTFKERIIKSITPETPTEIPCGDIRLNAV
The experiment in a line: Time-lapse confocal fluorescence microscopy of transporter-expressing HEK-293 cells (hSERT). The format is cell-based. Conditions: HEK-293 hSERT, 10 μM to 100 μM, images at 10 sec intervals.
Text: as §1

The test system of data set [8] is live brainstem and cerebellum sections from e19 chicks. Put plainly: Confocal imaging of live brain explant sections, with and without desipramine. Conditions: for distribution in live brain sections: 405 nm excitation, cerebellum and brainstem. Further details: species or system chick. The source says:
This distribution is consistent with the behavior of these probes towards MAT-expressing HEK293 cells. The wider distribution of 13A may be due to binding to multiple transporter types, wh[…] may be limited to NET or DAT expressing catecholaminergic cells. […] Image overlays from 100 μm sagittal (FIG. 8A) and transverse (FIG. 8B) sections reveal that both probes are associated with cells of chick mesencephalon and metencephalon. The fluorophores were excited by laser at 405 nm. […] The scale bars for FIG. 8 are as follows: 8A & 8B=100 μm; C & D=10 μm; and E & F=50 μm).

Data set [9] has as its system monoamine oxidases (MAOs). Put plainly: Conversion of profluorescent HNETP to HNEP+ in cell culture. In kind it is cell-based. The source says:
In addition, it has been discovered that reduction of HNEP+ (UM006) results in the formation of HNETP (UM007). This provides a profluorescent option for screening pharmaceutical targets in vivo, which allows for the assessment of bioavailability of compounds in model organisms. In particular, the long wavelength absorption and emission of HNEP+ are not present in HNETP due to the loss of conjugation and the cationic pyridinium functionality. […] This reflects two distinct processes: accumulation of HNETP in the cells and the metabolism of HNETP to HNEP+ by MAOs. Inhibitors of MAO are important for several diseases including Parkinsons Disease as well as hypertensive disorders.

As for `NCCn1c(=O)cc(C(F)(F)F)c2ccc(O)cc21` [Compound 1], in data set [1] (one minute exposure, 405 nm excitation), the “cell binding / illumination” value is “bound to and illuminated most healthy cells”. Besides, the photostability during imaging result in data set [1] (without antifade reagents) is “sufficiently stable to capture multiple images over 10 mins”. The “subcellular localization of probe” value in data set [1] (z-stacks, one minute exposure) is “localized internally after only one minute of exposure; also recorded: localized to the interior of both astroglia and neurons”. Besides, in [2], the “effect of Clomipramine pretreatment on uptake” value is recorded as “significantly reduced” and the “emission response (cellular uptake)” value is listed as “high emission response”.
Regarding `CN(C)CCn1c(=O)cc(C(F)(F)F)c2ccc(O)cc21` [Compound 2], the “emission response (cellular uptake)” value in data set [2] is “did not differ significantly from the controls”.
`O=c1cc(C(F)(F)F)c2ccc(O)cc2n1CCO` [Compound 3]: the “emission response (cellular uptake)” value in [2] is “did not differ significantly from the controls”. Moreover, the “small additional emission peak” value in [3] came to 380 nm.
As to `O=c1cc(C(F)(F)F)c2ccc(O)cc2n1CCCc1ccccc1` [Compound 4], the solubility in data set [4] is under 50 µM. Further, in [2], the “effect of Clomipramine pretreatment on uptake” value is given as “significantly reduced” and the “emission response (cellular uptake)” value is given as “to a lesser extent”. Further, the “small additional emission peak” value in data set [3] is given as 380 nm.
On to `NCCc1c[nH]c2ccc(O)cc12` [Compound 5HT, 5-hydroxytryptamine, reference compound], for which, in [3] (5HT comparison), the “λmax,abs” value was found to be 277 nm.
On to `CN(C)CCn1c(=O)cc(C(F)(F)F)c2ccc(O)cc21` [Compound 8], for which the “uptake in dissociated chick brain cells” value in data set [5] is recorded as “little or no uptake”.
For `CN(C)CCN1C(=O)c2cccc3c(N)ccc(c23)C1=O` [Compound 9], in [5], the “uptake in dissociated chick brain cells” value is listed as “little or no uptake”.
On to `COc1ccc(/C=C/c2cc[n+](C)cc2)cc1` [Compound 12A], for which, in [6], the “emission response after indatraline pretreatment” value was “maintained high responses even after indatraline pretreatment”. In data set [7] (10 μM solutions), the absorption maxima turned out to be 358 nm; the emission maxima is 475 nm and 490 nm. Further, in data set [5], the “uptake in dissociated chick brain cells” value is reported as “accumulated”.
As to `C[n+]1ccc(/C=C/c2ccc3ccccc3c2)cc1.[I-]` [Compound 13A, (E)-1-Methyl-4-[2-(2-naphthalenyl)ethenyl]-pyridinium iodide], the “emission response after indatraline pretreatment” value in data set [6] is “affected by indatraline pretreatment”. Moreover, the “overall brightness (ε·Φem)” value in [7] (versus acridine orange, Hoescht 33258 and DAPI) was “compares favorably”. For the same molecule, at hNET, the “accumulation / transport in cells expressing NET” value is given as “did not accumulate; also recorded: does not appear to be transported”. The “accumulation / transport in cells expressing DAT” value on hDAT is recorded as “did not accumulate; also recorded: does not appear to be transported”. Besides, on hSERT, the “accumulation / transport in cells expressing SERT” value is “did not accumulate; also recorded: does not appear to be transported”. For the same molecule, the “distribution in live brain sections” value in [8] was “widely distributed in both the cerebellum and pons”.
For `C[n+]1ccc(/C=C/c2ccc3cc(O)ccc3c2)cc1` [Compound 14A, (E)-4-[2-(6-hydroxy-2-naphthalenyl)ethenyl]-1-methyl-pyridinium iodide], the “accumulation / transport in cells expressing NET” value at hNET was “preferentially accumulates in cells expressing NET; also recorded: rapidly accumulated”. Further, the “accumulation / transport in cells expressing SERT” value on hSERT is on record as “does not differ substantially from the control untransfected HEK cells”. The “distribution in live brain sections” value in data set [8] was “appears in distinct cell groupings along the cerebellar gyri and around the midline of the brainstem”. In data set [8] (pretreatment with desipramine, a norepinephrine reuptake inhibitor), the “effect of desipramine pretreatment on accumulation” value is listed as “limited the accumulation”.
Regarding `CN1CC=C(/C=C/c2ccc3cc(O)ccc3c2)CC1` [HNETP], the “metabolic conversion by MAOs” value in [9] is recorded as “convert HNETP to HNEP+ in cell culture”.
